The structures appear in SMILES notation. pKi: −log10 of the molar value. Some results are limits rather than exact numbers.

Chain of c-Met (P08581 25-1390): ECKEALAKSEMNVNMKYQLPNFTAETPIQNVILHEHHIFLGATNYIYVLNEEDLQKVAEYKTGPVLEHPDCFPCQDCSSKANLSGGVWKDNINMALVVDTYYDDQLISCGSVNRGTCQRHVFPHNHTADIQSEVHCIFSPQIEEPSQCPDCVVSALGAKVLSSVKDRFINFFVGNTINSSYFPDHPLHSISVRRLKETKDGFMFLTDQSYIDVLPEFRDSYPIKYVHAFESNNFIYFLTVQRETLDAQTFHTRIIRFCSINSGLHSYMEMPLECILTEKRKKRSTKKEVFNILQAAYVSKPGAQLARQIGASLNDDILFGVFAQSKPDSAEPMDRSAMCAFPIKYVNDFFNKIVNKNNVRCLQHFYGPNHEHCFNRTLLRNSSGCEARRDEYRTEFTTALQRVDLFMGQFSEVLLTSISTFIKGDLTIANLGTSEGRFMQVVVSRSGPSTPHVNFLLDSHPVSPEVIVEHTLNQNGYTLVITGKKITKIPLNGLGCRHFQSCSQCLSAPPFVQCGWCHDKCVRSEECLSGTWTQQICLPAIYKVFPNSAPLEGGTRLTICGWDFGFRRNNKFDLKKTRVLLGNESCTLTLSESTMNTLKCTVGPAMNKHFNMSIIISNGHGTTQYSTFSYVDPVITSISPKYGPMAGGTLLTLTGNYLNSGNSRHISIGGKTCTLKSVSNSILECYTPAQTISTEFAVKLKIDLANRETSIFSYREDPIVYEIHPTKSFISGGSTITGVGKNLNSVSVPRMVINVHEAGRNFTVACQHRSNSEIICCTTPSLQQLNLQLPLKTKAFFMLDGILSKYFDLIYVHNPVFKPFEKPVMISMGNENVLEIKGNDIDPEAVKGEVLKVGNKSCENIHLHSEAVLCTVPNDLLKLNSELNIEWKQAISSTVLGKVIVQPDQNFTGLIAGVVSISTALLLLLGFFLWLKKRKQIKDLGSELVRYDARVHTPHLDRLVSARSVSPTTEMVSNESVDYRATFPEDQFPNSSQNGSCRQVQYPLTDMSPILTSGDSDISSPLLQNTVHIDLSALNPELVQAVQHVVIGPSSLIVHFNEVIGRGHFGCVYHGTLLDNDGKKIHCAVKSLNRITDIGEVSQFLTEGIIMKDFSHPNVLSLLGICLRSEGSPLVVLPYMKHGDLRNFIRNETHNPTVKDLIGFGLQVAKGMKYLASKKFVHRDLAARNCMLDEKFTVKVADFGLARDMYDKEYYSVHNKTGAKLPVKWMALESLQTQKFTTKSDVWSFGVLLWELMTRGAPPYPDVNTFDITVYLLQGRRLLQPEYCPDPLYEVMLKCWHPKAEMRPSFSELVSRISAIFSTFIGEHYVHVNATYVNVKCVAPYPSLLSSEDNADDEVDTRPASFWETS

The first assay has as its target c-Met (Homo sapiens, UniProt P08581). The experiment in a line: Ki determination for the inhibition of c-Met kinase activity (standard coupled enzyme system). The class given is biochemical. Particulars: coupled enzyme system, 200 μM ATP, 80 nM c-Met, 30° C.; read-out: c-Met Ki. The procedure, abridged: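 The kinase (80 nM) turned over polyGluTyr (10 μM) with ATP (200 μM, added to start), coupled to NADH oxidation via pyruvate kinase/lactate dehydrogenase at pH 7.5 HEPES, 1.5% DMSO.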
The pKi is −log10 of the Ki, conventionally taken in molar units. `c1ccc(C2=Nn3c(Cc4ccncc4)nnc3SC2)cc1` [Compound 529]: the pKi was under 5.70. For the molecule `Oc1ccc2[nH]cc(Cc3nnc4ccc(Nc5cccc(Cl)c5)nn34)c2c1` [Compound 458], the pKi was under 5.70. On to `Clc1cccc(Nc2ccc3nnc(Cc4ccc(Cl)nc4)n3n2)c1` [Compound 354], for which the pKi was 5.70 to 7.00. Same read-out and setting: to `C[C@@H](c1ccc(O)cc1)c1nnc2ccc(NC3CC4CCC3C4)nn12` (some centres unmarked) [Compound 420] belongs over 7.00. On the same count and under the same terms, to `COCCC(=O)N[C@@H]1CCCC[C@H]1Nc1ccc2nnc([C@@H](C)c3ccc(O)cc3)n2n1` [Compound 451] belongs under 5.70. Regarding `Cc1nnc(Nc2ccc3nnc([C@@H](C)c4ccc(O)cc4)n3n2)s1` [Compound 500], the pKi is under 5.70. With `Nc1cc(OCc2nnc3ccc(Nc4cccc(Cl)c4)nn23)c2ccccc2n1` [Compound 466], the pKi is under 5.70. As for `COc1ccc(Cc2nnc3ccc(Nc4cccc(Cl)c4)nn23)cc1Br` [Compound 437], the pKi was 5.70 to 7.00. In the case of `Clc1cccc(Nc2ccc3nnc(Cn4ncc5ccccc54)n3n2)c1` [Compound 489], the pKi is under 5.70. Still for that read-out and setting: to `COc1ccc(OC)c(NCc2nnc3ccc(Nc4cccc(Cl)c4)nn23)c1` [Compound 353] belongs under 5.70. As to `Oc1c(Cc2nnc3ccc(Nc4cccc(Cl)c4)nn23)cnc2ncnn12` [Compound 516], the pKi is under 5.70.

On to `Fc1ccc(NCc2nnc3ccc(Nc4cccc(Cl)c4)nn23)c(F)c1` [Compound 344], for which the pKi was under 5.70. For `COc1ccc(NCc2nnc3ccc(Nc4cccc(Cl)c4)nn23)cc1` [Compound 350], the pKi was under 5.70.

Regarding `Fc1ccc(NCc2nnc3ccc(Nc4cccc(Cl)c4)nn23)cc1F` [Compound 341], the negative logarithm of the Ki (pKi) was under 5.70. Same read-out and setting: to `CS(=O)(=O)Nc1ccc(Cc2nnc3ccc(Nc4cccc(Cl)c4)nn23)cc1` [Compound 369] belongs under 5.70.

As for `Oc1ccc(Cc2nnc3ccc(NC4CCC4)nn23)cc1` [Compound 330], the pKi was 5.70 to 7.00. On the same count and under the same terms, to `NC(=O)c1ccc(NCc2nnc3ccc(Nc4cccc(Cl)c4)nn23)nc1` [Compound 455] belongs under 5.70; to `CC(=O)N1CCCC(Nc2ccc3nnc(Cc4ccc(O)cc4)n3n2)C1` (centres unmarked) [Compound 326], under 5.70. Still for that read-out and setting: to `Oc1ccc(Cc2nnc3ccc(Nc4cc(Cl)ccc4Cl)nn23)cc1` [Compound 361] belongs over 7.00.

As for `O=C(Nc1ccc2nnc(Cc3ccc(O)cc3)n2n1)c1cccc(Cl)c1` [Compound 398], the pKi was under 5.70. As to `CC(c1ccc(F)cc1)c1nnc2ccc(Nc3cccc(Cl)c3)nn12` (centres unmarked) [Compound 493], the negative logarithm of the Ki (pKi) is over 7.00. For the molecule `Oc1ccc(Cc2nnc3ccc(Nc4ccc(F)c(Cl)c4)nn23)cc1` [Compound 424], the pKi was over 7.00. Regarding `Oc1cccc(OCc2nnc3ccc(Nc4cccc(Cl)c4)nn23)c1` [Compound 409], the pKi was 5.70 to 7.00. Take `C[C@@H](c1ccc(O)cc1)c1nnc2ccc(Nc3ccc(F)nc3)nn12` [Compound 510]: the negative logarithm of the Ki (pKi) is 5.70 to 7.00.

For `OCCc1cccc(Nc2ccc3nnc(Cc4ccc(O)c(Cl)c4)n3n2)c1` [Compound 300], the pKi is 5.70 to 7.00.

With `C[C@@H](c1ccc(O)cc1)c1nnc2ccc(Nc3ccc(Cl)nn3)nn12` [Compound 512], the pKi was 5.70 to 7.00.

On to `COCCC(=O)N[C@H]1CCCC[C@@H]1Nc1ccc2nnc([C@@H](C)c3ccc(O)cc3)n2n1` [Compound 449], for which the pKi was under 5.70. On the same count and under the same terms, to `CC(C)(C)Nc1ccc2nnc(Cc3ccc(O)cc3)n2n1` [Compound 401] belongs 5.70 to 7.00; to `C[C@@H](c1ccc(O)cc1)c1nnc2ccc(Nc3cccc(Cl)c3)nn12` [Compound 320], over 7.00; to `CC[C@@H](CO)Nc1ccc2nnc(Cc3ccc(O)cc3)n2n1` [Compound 308], 5.70 to 7.00.

Still in this assay, the particulars now being: coupled enzyme system, 200 μM ATP, 10 μM polyGluTyr, 80 nM c-Met, 30° C.; read-out: c-Met Ki.
With `Oc1ccc(Cc2nnc3sc(NCc4cccnc4)nn23)cc1` [Compound 9], the pKi was 5.70 to 7.00. For `Oc1ccc(Cc2nnc3sc(Nc4ccc(Cl)cc4)nn23)cc1` [Compound 52], the pKi is over 7.00. Consider `CC(c1ccc(O)cc1)c1nnc2sc(Nc3cccc(Cl)c3)nn12` (centres unmarked) [Compound 63], for which the pKi was over 7.00.

As for `c1ccc(-c2ccc3nnc(Cc4ccc5c(c4)OCO5)n3n2)cc1` [Compound 207], the pKi is 5.70 to 7.00. Same read-out and setting: to `COc1ccc(Cc2nnc3ccc(Nc4cccc(OC)c4)nn23)cc1` [Compound 242] belongs 5.70 to 7.00; to `Oc1ccc(Cc2nnc3ccc(N[C@@H]4C[C@H]4c4ccccc4)nn23)cc1` [Compound 192], under 5.70; to `CC(=O)Nc1cccc(NCc2nnc3ccc(-c4ccccc4)nn23)c1` [Compound 210], under 5.70.

Take `CC(c1ccc(O)cc1)c1nnc2sc(C(=O)NC3CC3)nn12` (centres unmarked) [Compound 90]: the pKi was under 5.70. The same measure, in the same setting: to `Clc1cccc(Nc2ccc3nnc(Cc4ccncc4)n3n2)c1` [Compound 240] belongs 5.70 to 7.00; to `COCC1CCCN1c1nn2c(Cc3ccc(OC)cc3)nnc2s1` (centres unmarked) [Compound 12], under 5.70; to `O=c1[nH]c2ccc(Nc3ccc4nnc(Cc5ccc(O)cc5)n4n3)cc2[nH]1` [Compound 216], over 7.00. On the same count and under the same terms, to `Oc1ccc(Cc2nnc3sc(Nc4ccc(F)cc4)nn23)cc1` [Compound 46] belongs over 7.00; to `COc1ccccc1Nc1nn2c(Cc3ccc(O)c(F)c3)nnc2s1` [Compound 30], 5.70 to 7.00. Consider `C[C@@H](Nc1ccc2nnc(Cc3ccc(O)cc3)n2n1)C1CCCCC1` [Compound 189], for which the negative-log Ki (pKi) was 5.70 to 7.00. As to `Oc1ccc(Cc2nnc3ccc(NCC4CCCCC4)nn23)cc1` [Compound 195], the negative logarithm of the Ki (pKi) is 5.70 to 7.00. Same read-out and setting: to `COc1ccc(Cc2nnc3sc(CNC(C)=O)nn23)cc1` [Compound 23] belongs under 5.70; to `COc1cc(Cc2nnc3sc(Nc4cccnc4)nn23)ccc1O` [Compound 51], under 5.70. In the case of `c1cncc(Nc2nn3c(Cc4ccc5c(c4)OCO5)nnc3s2)c1` [Compound 84], the pKi was 5.70 to 7.00. Turning to `CC(c1ccc(O)cc1)c1nnc2sc(C(N)=O)nn12` (centres unmarked) [Compound 88], the pKi is under 5.70.

As to `COc1ccc(Cc2nnc3ccc(Nc4cccc(C(C)O)c4)nn23)cc1` (centres unmarked) [Compound 257], the pKi is 5.70 to 7.00. In the case of `COc1cccc(N2CCN(c3ccc4nnc(Cc5ccc(O)cc5)n4n3)CC2)c1` [Compound 194], the pKi was 5.70 to 7.00. On the same count and under the same terms, to `Oc1ccc(Cc2nnc3ccc(-c4ccccc4)nn23)cc1` [Compound 176] belongs 5.70 to 7.00; to `CC(c1ccc(O)cc1)c1nnc2sc(Nc3cc(F)cc(F)c3)nn12` (centres unmarked) [Compound 133], over 7.00. Take `COc1ccc(Nc2nn3c(Cc4ccc(O)cc4)nnc3s2)cc1` [Compound 80]: the pKi is over 7.00. In the case of `Cc1ccc(F)cc1Nc1nn2c(Cc3ccc(O)cc3)nnc2s1` [Compound 75], the pKi is over 7.00. Still for that read-out and setting: to `Oc1ccc(Cc2nnc3sc(Nc4cccc(Cl)c4F)nn23)cc1F` [Compound 130] belongs 5.70 to 7.00. Still for that read-out and setting: to `CN(C)c1ccc(Nc2nn3c(Cc4ccc(O)cc4)nnc3s2)cc1` [Compound 74] belongs 5.70 to 7.00.

For the molecule `Oc1ccc(Cc2nnc3sc(Nc4ccc(Cl)cc4)nn23)cc1Cl` [Compound 55], the pKi is 5.70 to 7.00.

In the case of `COc1ccc(Cc2nnc3ccc(-c4ccccc4)nn23)cc1OC` [Compound 206, 3-(3,4-dimethoxybenzyl)-6-phenyl-[1,2,4]triazolo[4,3-b]pyridazine], the pKi is under 5.70.

The values above are taken from US7998987B2, “Inhibitors of c-Met and uses thereof” (Vertex Pharmaceuticals Incorporated, priority 2005, dated 2011).
